Assay results taken from patent US20250352517A1, “THERAPEUTIC OR PROPHYLACTIC AGENT FOR COVID19 WHICH COMPRISES SELENONEINE” (National University Corporation Chiba University, priority 2021, published 2025).

Assays:
Assay type in all cases: biochemical
M^pro of SARS-COV2 [1] = biological target: T1, M^pro of SARS-COV2 (Severe acute respiratory syndrome coronavirus 2, UniProt P0DTD1); test: Inhibitory activity against M^pro of SARS-COV2 at 1 μM test compound, Example 5; conditions: 2 μg/ml M^pro, measured 1 minute after addition, FIG. 10
Procedure: The M^pro was introduced into a plasmid having GST and a histidine tag (FIG. 6), and the resulting plasmid was used for transformation of the E. coli BL21 (DE3) strain. The E. coli BL21 (DE3) strain was cultured at 37° C. to allow expression of M^pro protein. The cell bodies were recovered, and M^pro protein was purified using a binding agent for the histidine tag. The GST and the histidine tag were removed by autodigestion of M^pro and human rhinovirus 3C protease (HRV), and undigested M^pro and HRV were removed using a binding agent for the histidine tag, to obtain a purified sample of M^pro protein. […]
After dissolving 2 μg/ml M^pro and 1 μM test compound in 50 mM Tris-HCl (pH 7.4) kept at 37° C., preincubation was carried out for 5 minutes. Thereafter, 10 μM Ac-Abu-Tle-Leu-Gln-MCA was added to the reaction solution, and the fluorescence intensity resulting from cleavage of Ac-Abu-Tle-Leu-Gln-MCA was measured using a fluorometer, to measure the inhibitory activity (FIG. 10). […] When the fluorescence intensity observed in the case without addition of a test compound was taken as 100, the fluorescence intensity measured 1 minute after the addition of the test compound was about 20% in the case of selenoneine.

M^pro of SARS-COV2 [2] = biological target: T1, M^pro of SARS-COV2; test: Inhibitory activity against M^pro of SARS-COV2 (Ac-Abu-Tle-Leu-Gln-MCA fluorescent substrate), Example 4; conditions: 2 μg/ml M^pro, 5 min preincubation
Procedure: Thereafter, 10 μM Ac-Abu-Tle-Leu-Gln-MCA was added to the reaction solution, and changes in the fluorescence intensity caused by cleavage of Ac-Abu-Tle-Leu-Gln-MCA were measured using a fluorometer, to investigate the inhibitory activity (FIG. 8). In order to provide a control, changes in the fluorescence intensity were measured under the same conditions except that no inhibitory compound was added.
Ac-Abu-Tle-Leu-Gln-MCA is degraded by M^pro, to produce a fluorescent substance as follows. The production of the fluorescent substance is suppressed by the action of an M^pro-inhibiting compound.
Thereafter, 10 μM Ac-Abu-Tle-Leu-Gln-MCA was added to the reaction solution, and changes in the fluorescence intensity caused by cleavage of Ac-Abu-Tle-Leu-Gln-MCA were measured using a fluorometer to measure the fluorescence intensity, to determine an inhibition curve (FIG. 8).

papain = biological target: T2, papain (Carica papaya, UniProt P00784); test: Inhibitory activity against papain activity (Bz-Arg-MCA fluorescent substrate); conditions: 10 μg/ml papain, 15 min preincubation, 37° C., pH 7.4, 10 μM Bz-Arg-MCA; from FIG. 5
T2 construct: purchased Sigma-Aldrich Japan
T2 sequence (P00784 134-345): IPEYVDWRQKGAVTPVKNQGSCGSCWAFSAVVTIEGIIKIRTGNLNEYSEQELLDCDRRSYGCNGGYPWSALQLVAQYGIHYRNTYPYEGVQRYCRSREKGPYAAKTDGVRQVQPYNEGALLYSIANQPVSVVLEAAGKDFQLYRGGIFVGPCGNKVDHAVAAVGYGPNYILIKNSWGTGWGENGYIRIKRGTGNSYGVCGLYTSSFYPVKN
Procedure: Thereafter, 10 μM Bz-Arg-MCA was added to the reaction solution, and changes in the fluorescence intensity caused by cleavage of Bz-Arg-MCA were observed over time using a fluorometer.
Thereafter, 10 μM Bz-Arg-MCA was added to the reaction solution, and changes in the fluorescence intensity caused by cleavage of Bz-Arg-MCA were measured using a fluorometer, to investigate the inhibitory activity.

SMILES	fluorescence intensity (case without test compound taken as 100) (M^pro of SARS-COV2 [1])	IC50 (M^pro of SARS-COV2 [2]; 37° C., pH 7.4, 10 μM Ac-Abu-Tle-Leu-Gln-MCA, read-out: IC50 value calculated from the regression curve) [nM]	changes in the fluorescence intensity compared with control without inhibitory compound (M^pro of SARS-COV2 [2]; 5 μM compound, FIG. 8)	IC50 (papain) [nM]
C[N+](C)(C)C(Cc1cnc([SeH])[nH]1)C(=O)O [Selenoneine, 2-selenyl-Nα,Nα,Nα-trimethyl-L-histidine]	about 20%	540	lower than that in the case where no inhibitory compound was added	250
O=c1c2ccccc2[se]n1-c1ccccc1 [Ebselen, ebselen, reference compound]				5000
